# Laboratory results published in patent publication US20260273028A1, “PEROXIDASE COMPOSITIONS CONTAINING IMPROVED ENHANCING AGENTS” (FLEN HEALTH PHARMA NV, priority 2022, published 2026).
# Assays:
# Format in all cases: cell-based
# [1] = test system: C. albicans (ATCC®10231™); assay: Microbial challenge testing in alginogel with GOX+LPO; conditions: for reduction in absolute C. albicans counts compared to guaiacol in the same concentration: alginogel with GOX+LPO, enhancer 0.0005%; for antimicrobial activity of enhancing candidate only against C. albicans: alginogel without enzymes, highest concentration tested; for reduction in absolute C. albicans counts compared to reference (enzymes only): alginogel, 0.0075% GOX+LPO
# Experimental: (§1) To determine the ability of an antimicrobial agent to elicit an antimicrobial preserving efficacy in a gel environment, a microbiological challenge test can be performed. Here, the antimicrobial agent is a combination of the natural enzymes GOX+LPO. […] Microbial challenge testing was performed according to the method described in the European Pharmacopoeia current version chapter 5.1.3 ‘Efficacy of antimicrobial preservation’, but with adapted time points (0, 10, 20, 30, 40, 50, 60, 70 and 80 min instead of 0, 2, 7, 14 and 28 days). In brief, for every enhancing agent to be evaluated, a lab-scale alginogel (based on the Flaminal® formulation, but without the original enhancer guaiacol) including 0.0075% GOX+LPO (1:1) was prepared according to standard practices. Enhancing agents were added to the alginogel in a final concentration ranging from 0.01 to 0,00025% (v/w). As a reference, an alginogel including 0.0075% GOX+LPO (1:1) without the addition of any enhancing agent was included (designated as: enzymes only). As a control, an alginogel without both GOX+LPO (1:1) enzyme solution and enhancing agent (designated as: empty gel) as well as an alginogel only containing the enhancing agent only (designated as: enhancing candidate only) were included. After preparation, a homogenous sample of 10 g was transferred into a 50 ml conical tube for each alginogel to be evaluated and microorganism to be tested. For each test microorganism, including S. aureus (ATCC®6538™), P. aeruginosa (ATCC®9027™), C. albicans (ATCC®10231™) and A. niger (ATCC®16404 ™), a microbial suspension of about 10^8 CFU/ml was prepared in sterile diluent (buffered sodium chloride-peptone solution). Then, the 50 ml conical tubes containing the alginogel samples to be evaluated were inoculated with 100 μl of the designated inoculum. At the start (time point 0) and after 0, 10, 20, 30, 40, 50, 60, 70 and 80 min, the number of viable microorganisms per gram product (expressed as CFU/g) was determined by transferring a sample of 0.5 g of the product into a 15 ml conical tube containing 4.5 ml of sterile diluent and applying general dilution and plate count techniques. For each combination evaluated, this test was repeated at least 1-3 times. The collected data were further analyzed in MS Excel. Mean absolute counts (expressed as log CFU/g) were visualized in a graph.
# A. niger (ATCC®16404 ™) = assay: as above; conditions: for reduction in absolute A. niger counts compared to guaiacol in the same concentration: alginogel with GOX+LPO; for antimicrobial activity of enhancing candidate only against A. niger: alginogel without enzymes, highest concentration tested; for reduction in absolute A. niger counts compared to reference (enzymes only): alginogel, 0.0075% GOX+LPO
# Experimental: as §1
# [2] = test system: Aspergillus niger ATCC®16404™; assay: MIC determination, broth microdilution, GOX+LPO with potentiator candidate; conditions: A. niger
# Experimental: (§2) The minimum inhibitory concentration (MIC) is defined as the lowest concentration of an antimicrobial agent that results in a complete inhibition of microbial growth (determined via visual evaluation or absorbance measurements) after overnight incubation. This endpoint measurement is used to define the microbial susceptibility towards an antimicrobial agent. Here, the antimicrobial agent is a combination of the natural enzymes GOX+LPO.
# (§3) To determine the MIC of the described combinations, a classical broth microdilution assay was used to determine the susceptibility of a series of microbes commonly detected in infected wounds, including (a) the Gram-positive bacterium Staphylococcus aureus ATCC® 6538™ (results shown below), (b) the Gram-negative bacterium Pseudomonas aeruginosa ATCC®9027™ (results shown below), (c) the yeast Candida albicans ATCC®10231™ (results shown below), and (d) the fungus Aspergillus niger ATCC®16404™ (results shown below). In brief, a […] serial dilution of the enzymatic GOX+LPO solution was prepared in a transparent, flat-bottomed 96-well test plate with final concentrations ranging from 0.005 to 0.00000977% (v/v). To each well, a fixed volume of the enzymatic substrate containing 3,3% (w/v) glucose and 0,084% (w/v) potassium iodide, as well as the microbial inoculum with an OD600 of 0.1 was added. In the event the enzyme combination was evaluated in the presence of a potentiator candidate, the latter was added together with the enzymatic substrate in a final concentration ranging from 100 to 0,00125% (v/v). For each combination evaluated, a blank (no addition of microbial inoculum) was included. Positive (inoculum only) and negative (background solution only) were included to evaluate the performance of the test and to select the enzymatic GOX+LPO concentration at which no microbial growth is detected (i.e., absorbance equal to that of the background solution only). Then, the 96-well test plate was incubated for 24 hours at 37° C. (S. aureus, P. aeruginosa and C. albicans) or 25° C. (A. niger). After incubation, the absorbance of each well was measured using a plate spectrophotometer (Spectramax ID3, Molecular Devices). For each combination evaluated, this test was repeated at least 5 times. The collected data were further analyzed in MS Excel. Mean absorbance data were visualized in a table format in which the MIC was highlighted.
# [3] = test system: Staphylococcus aureus ATCC® 6538™; assay: as above; conditions: S. aureus
# Experimental: as §2, §3
# [4] = test system: Pseudomonas aeruginosa ATCC®9027™; assay: as above; conditions: P. aeruginosa
# Experimental: as §2, §3
# [5] = test system: Staphylococcus aureus ATCC® 6538™; assay: Absolute microbial counts in function of enzyme solution concentration; conditions: 0.005%-0.0000391% (v/v) GOX+LPO
# From the text: Absolute microbial counts in function of concentration of the antimicrobial agent tested are useful to monitor the bactericidal and fungicidal efficacy of that agent.
# To determine the absolute number of live microorganisms in function of different enzyme solution concentrations tested, a classical broth microdilution assay combined with standard CFU enumeration techniques was used to determine the susceptibility of a series of microbes commonly detected in infected wounds, including (a) the Gram-positive bacterium Staphylococcus aureus ATCC® 6538™ (results shown below), (b) the Gram-negative bacterium Pseudomonas aeruginosa ATCC®9027™ (results shown below), (c) the yeast Candida albicans ATCC®10231™ (results shown below), and (d) the fungus Aspergillus niger ATCC®16404™ (results shown below). In brief, the broth microdilution assay was set up as previously described (see 2.1). After incubation, the absolute microbial count at the MIC and following higher concentrations (MICx2, MICx4, and so on) was determined using standard CFU enumeration techniques. For each combination evaluated, this test was repeated at least 5 times. The collected data were further analyzed in MS Excel and expressed as log CFU/ml. Mean results were plotted in function of enzyme solution concentration.
SMILES,reduction in absolute C. albicans counts compared to guaiacol in the same concentration [1],antimicrobial activity of enhancing candidate only against C. albicans [1],reduction in absolute C. albicans counts compared to reference (enzymes only) ([1]; enhancer 0.0025%),"reduction in absolute C. albicans counts compared to reference (enzymes only) ([1]; enhancer 0,00125-0,0005%)",reduction in absolute A. niger counts compared to guaiacol in the same concentration (A. niger (ATCC®16404 ™); enhancer 0.0005%),antimicrobial activity of enhancing candidate only against A. niger (A. niger (ATCC®16404 ™)),"reduction in absolute A. niger counts compared to reference (enzymes only) (A. niger (ATCC®16404 ™); enhancer 0,0025-0,0005%)","MIC: GOX+LPO enzyme solution needed to completely inhibit growth ([4]; enhancer 0,1%)","increase in MIC compared to reference ([4]; enhancer 0,1%) [×]",MIC: GOX+LPO enzyme solution needed to completely inhibit growth ([4]; enhancer 1%),increase in MIC compared to reference ([4]; enhancer 1%) [×],reduction in absolute C. albicans counts compared to reference (enzymes only) ([1]; enhancer 0.00125%),reduction in absolute A. niger counts compared to reference (enzymes only) (A. niger (ATCC®16404 ™); enhancer 0.0025%),MIC: GOX+LPO enzyme solution needed to completely inhibit growth ([2]; enhancer 1%-0.01%),increase in MIC compared to reference ([2]; enhancer 1%-0.01%) [×],MIC: GOX+LPO enzyme solution needed to completely inhibit growth ([3]; enhancer 0.01%),increase in MIC compared to reference or guaiacol solution ([3]; enhancer 0.01%) [×],further results
"CC[C@H](C)[C@H](N)C(=O)O [Isoleucine, isoleucine]",faster complete reduction,no antimicrobial activity,immediate entire reduction,faster complete reduction,faster complete reduction,no antimicrobial activity,faster complete reduction,0.000625 % (v/v),2,0.000156 % (v/v),8,–,–,–,–,–,–,MIC: GOX+LPO enzyme solution needed to completely inhibit growth ([2]; enhancer 1%-0.005%): 0.000156 % (v/v); increase in MIC compared to reference ([2]; enhancer 1%-0.005%): 2 ×; MIC: GOX+LPO enzyme solution needed to completely inhibit growth ([3]; enhancer 0.0025% to 0.00125%): 0.0000391 % (v/v); increase in MIC compared to reference or guaiacol solution ([3]; enhancer 0.0025% to 0.00125%): 2 ×; MIC: GOX+LPO enzyme solution needed to completely inhibit growth ([3]; enhancer 0.5% to 0.005%): 0.0000391 % (v/v); increase in MIC compared to reference or guaiacol solution ([3]; enhancer 0.5% to 0.005%): 2 ×; reduction in absolute S. aureus counts compared to reference and guaiacol solution ([5]; enhancer 0.00125%): stronger reduction; reduction in absolute S. aureus counts compared to reference and guaiacol solution ([5]; enhancer 0.005%): stronger reduction
"O=C(O)[C@@H]1CCCN1 [Proline, proline]",faster complete reduction,no antimicrobial activity,immediate entire reduction,–,faster complete reduction,no antimicrobial activity,–,–,–,–,–,faster complete reduction,faster complete reduction,0.000156 % (v/v),2,0.0000195 % (v/v),4,MIC: GOX+LPO enzyme solution needed to completely inhibit growth ([3]; enhancer 10%): 0.0000391 % (v/v); increase in MIC compared to reference or guaiacol solution ([3]; enhancer 10%): 2 ×; MIC: GOX+LPO enzyme solution needed to completely inhibit growth ([4]; enhancer 0.0025-0.00125%): 0.000625 % (v/v); increase in MIC compared to reference or guaiacol solution ([4]; enhancer 0.0025-0.00125%): 2 ×; MIC: GOX+LPO enzyme solution needed to completely inhibit growth ([4]; enhancer 0.01-0.005%): 0.000625 % (v/v); increase in MIC compared to reference or guaiacol solution ([4]; enhancer 0.01-0.005%): 2 ×
"C[C@@H](O)[C@H](N)C(=O)O [Threonine, threonine]",faster complete reduction,no antimicrobial activity,immediate entire reduction,faster complete reduction,–,no antimicrobial activity,–,0.000625 % (v/v),2,0.000156 % (v/v),8,–,faster complete reduction,0.000156 % (v/v),2,0.0000391 % (v/v),2,reduction in absolute A. niger counts compared to guaiacol in the same concentration (A. niger (ATCC®16404 ™); enhancer 0.0025%): faster complete reduction; MIC: GOX+LPO enzyme solution needed to completely inhibit growth ([3]; enhancer 2%): 0.0000195 % (v/v); increase in MIC compared to reference or guaiacol solution ([3]; enhancer 2%): 4 ×
"NC(=O)C[C@H](N)C(=O)O [Asparagine, asparagine]",–,no antimicrobial activity,immediate entire reduction,–,faster complete reduction,no antimicrobial activity,faster complete reduction,0.000625 % (v/v),2,0.000156 % (v/v),8,faster complete reduction,–,–,–,–,–,MIC: GOX+LPO enzyme solution needed to completely inhibit growth ([2]; enhancer 1%-0.05%): 0.000156 % (v/v); increase in MIC compared to reference ([2]; enhancer 1%-0.05%): 2 ×; MIC: GOX+LPO enzyme solution needed to completely inhibit growth ([3]; enhancer 0.5% to 0.01%): 0.0000391 % (v/v); increase in MIC compared to reference or guaiacol solution ([3]; enhancer 0.5% to 0.01%): 2 ×
